Data from PubChem BioAssay AID248 (DTP/NCI, 2004).
Values joined by “and” are separate entries in the source; they are usually repeats but may differ in a detail not shown here. Equal entries are not always repeated. Toxic doses and inconclusive results are not listed. Cut-off read from the data, not from the text of the source: active = T/C of 150% or more; inactive = T/C below 125%.

Tested on: L1210 leukemia ip in BDF1 mice, survival T/C
Test: NCI In Vivo Anticancer Drug Screen. Data for tumor model L1210 Leukemia (intraperitoneal) in B6D2F1 (BDF1) mice
Settings: endpoint: mean survival time, higher = longer survival
Outline: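 Ratio derived from survival: compound-dosed mice over vehicle-dosed mice, all bearing a transplantable tumor.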

[1] = dose: 50.0 mg/kg/injection, schedule: Q01DX009 (ip), vehicle: saline with Tween-80
[2] = dose: 100.0 mg/kg/injection, schedule: Q01DX009 (ip), vehicle: saline with Tween-80
[3] = dose: 200.0 mg/kg/injection, schedule: Q01DX009 (ip), vehicle: saline with Tween-80
[4] = dose: 100.0 mg/kg/injection, schedule: Q01DX001 (ip), vehicle: saline
[5] = dose: 200.0 mg/kg/injection, schedule: Q01DX001 (ip), vehicle: saline
[6] = dose: 400.0 mg/kg/injection, schedule: Q01DX001 (ip), vehicle: saline
[7] = dose: 100.0 mg/kg/injection, schedule: Q01DX009 (ip), vehicle: Klucel (hydroxypropylcellulose) (HPC)
[8] = dose: 100.0 mg/kg/injection, schedule: Q04DX003 (ip), vehicle: Klucel (hydroxypropylcellulose) (HPC)
[9] = dose: 200.0 mg/kg/injection, schedule: Q01DX009 (ip), vehicle: Klucel (hydroxypropylcellulose) (HPC)
[10] = dose: 200.0 mg/kg/injection, schedule: Q04DX003 (ip), vehicle: Klucel (hydroxypropylcellulose) (HPC)
[11] = dose: 400.0 mg/kg/injection, schedule: Q01DX009 (ip), vehicle: Klucel (hydroxypropylcellulose) (HPC)
[12] = dose: 400.0 mg/kg/injection, schedule: Q04DX003 (ip), vehicle: Klucel (hydroxypropylcellulose) (HPC)
[13] = dose: 100.0 mg/kg/injection, schedule: Q01DX001 (ip), vehicle: saline with Tween-80
[14] = dose: 100.0 mg/kg/injection, schedule: Q04DX002 (ip), vehicle: Klucel (hydroxypropylcellulose) (HPC)
[15] = dose: 200.0 mg/kg/injection, schedule: Q04DX002 (ip), vehicle: Klucel (hydroxypropylcellulose) (HPC)
[16] = dose: 400.0 mg/kg/injection, schedule: Q04DX002 (ip), vehicle: Klucel (hydroxypropylcellulose) (HPC)
[17] = dose: 100.0 mg/kg/injection, schedule: Q04DX003 (ip), vehicle: saline with Tween-80
[18] = dose: 100.0 mg/kg/injection, schedule: Q04DX003 (ip), vehicle: saline
[19] = dose: 100.0 mg/kg/injection, schedule: Q01DX009 (ip), vehicle: saline
[20] = dose: 200.0 mg/kg/injection, schedule: Q01DX009 (ip), vehicle: saline
[21] = dose: 200.0 mg/kg/injection, schedule: Q04DX003 (ip), vehicle: saline
[22] = dose: 400.0 mg/kg/injection, schedule: Q01DX009 (ip), vehicle: saline
[23] = dose: 400.0 mg/kg/injection, schedule: Q04DX003 (ip), vehicle: saline
[24] = dose: 200.0 mg/kg/injection, schedule: Q04DX003 (ip), vehicle: saline with Tween-80
[25] = dose: 50.0 mg/kg/injection, schedule: Q01DX001 (ip), vehicle: saline
[26] = dose: 100.0 mg/kg/injection, schedule: Q01DX001 (ip), vehicle: Klucel (hydroxypropylcellulose) (HPC)
[27] = dose: 200.0 mg/kg/injection, schedule: Q01DX001 (ip), vehicle: Klucel (hydroxypropylcellulose) (HPC)

Measured: T/C

Cc1ccc(C(=O)C[n+]2cccc3ccccc32)c(C)c1
inactive: dose: 25.0 mg/kg/injection, schedule: Q04DX002 (ip), vehicle: saline with Tween-80 93 % of control

CCc1ccc(C(C)(C)C)cc1
inactive: [1] 95 % of control | [2] 95 % of control | [3] 107 % of control

CCCCCC[C@@H](O)C/C=C\CCCCCCCC(=O)OC
inactive: [4] 97 % of control | [5] 97 % of control | [6] 103 % of control

Cc1cc(OC(=O)/C=C/C(=O)Oc2cc(C)c(Cl)c(C)c2)cc(C)c1Cl
inactive: [7] 97 % of control | [8] 105 % of control | [9] 95 % of control | [10] 104 % of control | [11] 97 % of control | [12] 104 % of control

O=c1/c(=C/c2ccccc2)c2cccc3cccc1c32
inactive: dose: 25.0 mg/kg/injection, schedule: Q01DX001 (ip), vehicle: saline with Tween-80 97 % of control | dose: 50.0 mg/kg/injection, schedule: Q01DX001 (ip), vehicle: saline with Tween-80 93 % of control | [13] 97 % of control

Nc1ccc([N+](=O)[O-])cc1Cl
inactive: [14] 122 % of control | [15] 105 % of control | [16] 97 % of control

NC(N)=NCCCOc1ccc([N+](=O)[O-])cc1
inactive: dose: 25.0 mg/kg/injection, schedule: Q04DX003 (ip), vehicle: saline 96 % of control | dose: 50.0 mg/kg/injection, schedule: Q04DX003 (ip), vehicle: saline 100 % of control | [17] 101 % of control | [18] 94 % of control

Cc1csc[n+]1C
inactive: dose: 75.0 mg/kg/injection, schedule: Q01DX001 (ip), vehicle: saline 98 % of control | dose: 150.0 mg/kg/injection, schedule: Q01DX001 (ip), vehicle: saline 102 % of control

Cc1ccc([N+](=O)[O-])cc1NC(=O)Nc1cccc(Cl)c1Cl
inactive: [14] 86 % of control | [15] 96 % of control | [16] 90 % of control

CC(O)(c1ccc(Br)cc1)C(c1ccccc1)c1ccccn1 (stereo not drawn)
inactive: dose: 50.0 mg/kg/injection, schedule: Q01DX009 (ip), vehicle: saline 103 % of control | [19] 94 % of control | [18] 110 % of control | [20] 94 % of control | [21] 103 % of control | [22] 101 % of control | [23] 110 % of control

Cc1cccc(NC(=O)NC2CCCCC2)c1C
inactive: [14] 111 % of control | [15] 99 % of control | [16] 86 % of control

CC(=O)Nc1cc(Cl)c(Cl)cc1Cl
inactive: [17] 103 % of control | [24] 102 % of control | dose: 400.0 mg/kg/injection, schedule: Q04DX003 (ip), vehicle: saline with Tween-80 96 % of control

COc1ccc2c(c1)CCC1=C2CCC2(C)C(=O)OC(=O)C12 (stereo not drawn)
inactive: [7] 103 % of control | [8] 102 % of control | [9] 97 % of control | [10] 93 % of control | [11] 101 % of control | [12] 111 % of control

O=C(Nc1ccc(S(=O)(=O)F)cc1)/C(=C/c1cccc([N+](=O)[O-])c1)c1ccccc1
inactive: [7] 106 % of control | [9] 94 % of control | [11] 100 % of control

O=C1C2(Cl)C3(Cl)C4(OCCO4)C4(Cl)C2(Cl)C2(Cl)C1(Cl)C3(Cl)C42Cl (stereo not drawn)
inactive: [25] 100 % of control | [4] 100 % of control | [5] 105 % of control | [6] 96 % of control

Cc1csc(/N=C/c2ccc([N+](=O)[O-])o2)n1
inactive: [1] 100 % of control | [2] 105 % of control | [17] 103 % of control | [3] 101 % of control | [24] 97 % of control

CC(=O)CC(C)(C)S(=O)(=O)O
inactive: [4] 100 % of control | [5] 100 % of control | [6] 100 % of control

CCOC(=O)/C(C#N)=C1/CCCN1
inactive: [19] 97 % of control | [20] 100 % of control | [22] 108 % of control

O=C(NCCCl)NC1CCCc2ccccc21 (stereo not drawn)
inactive: dose: 6.25 mg/kg/injection, schedule: Q01DX009 (ip), vehicle: Klucel (hydroxypropylcellulose) (HPC) 95 % of control | dose: 12.5 mg/kg/injection, schedule: Q01DX009 (ip), vehicle: Klucel (hydroxypropylcellulose) (HPC) 94 % of control | dose: 25.0 mg/kg/injection, schedule: Q01DX009 (ip), vehicle: Klucel (hydroxypropylcellulose) (HPC) 90 % of control | dose: 50.0 mg/kg/injection, schedule: Q01DX009 (ip), vehicle: Klucel (hydroxypropylcellulose) (HPC) 92 % of control | [26] 105 % of control | [27] 91 % of control

S=C([S-])N1CCN(c2ccccc2)CC1.S=C([S-])N1CCN(c2ccccc2)CC1.[Zn]
inactive: [18] 89 % of control | [21] 95 % of control and 88 % of control | [23] 90 % of control

COC12CCCC1S(=O)(=O)C2 (stereo not drawn)
inactive: dose: 25.0 mg/kg/injection, schedule: Q01DX009 (ip), vehicle: saline with Tween-80 102 % of control | [1] 98 % of control

CC(C)CCCC(C)C1CCC2C3CC=C4CC(OC(=O)c5cc([N+](=O)[O-])c(N6CC6)c([N+](=O)[O-])c5)CCC4(C)C3CCC12C (stereo not drawn)
inactive: dose: 50.0 mg/kg/injection, schedule: Q01DX001 (sc), vehicle: steriod suspending solution 110 % of control | dose: 100.0 mg/kg/injection, schedule: Q01DX001 (sc), vehicle: steriod suspending solution 96 % of control | dose: 200.0 mg/kg/injection, schedule: Q01DX001 (sc), vehicle: steriod suspending solution 102 % of control | dose: 400.0 mg/kg/injection, schedule: Q01DX001 (sc), vehicle: steriod suspending solution 96 % of control

O=S(=O)(OCCCl)c1ccc(Cl)c(Cl)c1
inactive: [13] 92 % of control | dose: 200.0 mg/kg/injection, schedule: Q01DX001 (ip), vehicle: saline with Tween-80 100 % of control | dose: 400.0 mg/kg/injection, schedule: Q01DX001 (ip), vehicle: saline with Tween-80 107 % of control

O=C(COc1ccccc1)Nc1cccnc1
inactive: [26] 94 % of control | [27] 102 % of control

CN(C)c1ccc(C=Nc2cc(Cl)ccc2Cl)cc1
inactive: [8] 89 % of control | [10] 88 % of control | [12] 89 % of control

CC(C)(C)OC(=O)C(c1ccccc1)c1ccccc1
inactive: [25] 106 % of control | [4] 89 % of control | [5] 106 % of control | [6] 89 % of control

CN(C)N=Nc1ccc2ncccc2c1[N+](=O)[O-]
inactive: dose: 100.0 mg/kg/injection, schedule: Q01DX001 (ip), vehicle: other 105 % of control | dose: 200.0 mg/kg/injection, schedule: Q01DX001 (ip), vehicle: other 103 % of control

O=C1c2cc(-c3ccccc3)c(-c3ccccc3)cc2C(c2ccccc2)(c2ccccc2)C1(Cl)Cl
inactive: [1] 100 % of control | [2] 100 % of control | [3] 95 % of control

COC(=O)c1cc2c(cc1N=Cc1ccccc1Cl)OCO2
inactive: dose: 75.0 mg/kg/injection, schedule: Q04DX003 (ip), vehicle: Klucel (hydroxypropylcellulose) (HPC) 101 % of control | [26] 97 % of control | dose: 150.0 mg/kg/injection, schedule: Q04DX003 (ip), vehicle: Klucel (hydroxypropylcellulose) (HPC) 98 % of control | [27] 95 % of control | dose: 300.0 mg/kg/injection, schedule: Q04DX003 (ip), vehicle: Klucel (hydroxypropylcellulose) (HPC) 97 % of control | dose: 400.0 mg/kg/injection, schedule: Q01DX001 (ip), vehicle: Klucel (hydroxypropylcellulose) (HPC) 95 % of control
